One assay addresses T1, K-Ras G12D (Homo sapiens, UniProt P01116, G12D).
T1 construct: made in house; host or cells: E. coli BL21 (DE3)
Nature of the assay: HTRF resonance energy transfer assay, K-Ras G12D / SOS1 interaction. Format: biochemical. The settings on record: HTRF assay of Example 5; read-out: IC50 against K-Ras G12D. The method, boiled down: (§1)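 GST-tagged K-Ras (WT or mutant) bound to anti-GST-Eu donor was mixed with His-hSOS1 bound to anti-6His-XL665 acceptor in ~5 mM HEPES pH 7.4, 150 mM NaCl, 1 mM DTT, 0.05% BSA, 0.0025% Igepal. HTRF (ex 337, em 620/665 nm) was read after ~10 min or longer. IC50 came from the 665/620 ratio over duplicates from 10 μM to 0.01 μM.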
For orientation: In TR-FRET formats the signal depends on donor and acceptor labels being close together.

Another assay addresses T2, K-Ras G12S (Homo sapiens, UniProt P01116, G12S).
T2 construct: made in house; host or cells: E. coli BL21 (DE3)
Nature of the assay: HTRF resonance energy transfer assay, K-Ras G12S / SOS1 interaction. Format: biochemical. As to conditions: HTRF assay of Example 5; read-out: IC50 against K-Ras G12S. An outline of the steps:
as §1

For another assay, the target named is T3, K-Ras G12V (Homo sapiens, UniProt P01116, G12V).
T3 construct: made in house; host or cells: E. coli BL21 (DE3)
T3 sequence (P01116 1-188 isoform P01116-2 G12V): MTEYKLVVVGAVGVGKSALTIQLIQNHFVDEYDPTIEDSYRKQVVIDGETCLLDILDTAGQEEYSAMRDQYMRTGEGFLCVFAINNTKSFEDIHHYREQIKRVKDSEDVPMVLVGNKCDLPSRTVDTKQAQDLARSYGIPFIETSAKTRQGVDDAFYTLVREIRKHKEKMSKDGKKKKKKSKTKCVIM
Nature of the assay: HTRF resonance energy transfer assay, K-Ras G12V / SOS1 interaction. Format: biochemical. As to conditions: HTRF assay of Example 5; read-out: IC50 against K-Ras G12V. The method, boiled down: as §1

A further assay has as its target T4, K-Ras WT (Homo sapiens, UniProt P01116).
T4 construct: made in house; host or cells: E. coli BL21 (DE3)
Nature of the assay: HTRF resonance energy transfer assay, K-Ras WT / SOS1 interaction. The format is biochemical. As to conditions: HTRF assay of Example 5; read-out: IC50 against K-Ras WT. The method, boiled down: as §1

The test system of a further assay is A549 cells. Nature of the assay: Ras cellular assay, growth of cells with K-Ras G12S mutation (CellTiter-Glo). The format is cell-based. As to conditions: Homo sapiens, cell growth, Example 9, G12S mutation, read-out: IC50 against A549 cells. An outline of the steps:
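A549 cells (K-Ras G12S) in RPMI-1640 with 10% heat-inactivated FBS, seeded e.g. 800 per well in standard or ultra-low-attachment 384-well plates, treated next day with a dilution series (e.g. 10-point, 3-fold). Viability by CellTiter-Glo luminescence about 6 days later; IC50 from four-parameter fit.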
In general terms: Cellular ATP, detected with luciferase, serves as a proxy for viable cell number.

The next assay relates to SW620 cells. Nature of the assay: Ras cellular assay, growth of cells with K-Ras G12V mutation (CellTiter-Glo). The settings on record: Homo sapiens, SW-620; cell growth, Example 9, G12V mutation; read-out: IC50 against SW620 cells. Format: cell-based. The method, boiled down: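 SW620 (K-Ras G12V) cells, e.g. 800/well in RPMI-1640 with 10% heat-inactivated FBS on standard or ultra-low attachment plates, were dosed the day after plating with e.g. a 10-point 3-fold series. Viability by CellTiter-Glo luminescence about 6 days later; IC50 from four-parameter fit.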

Drawing on patent publication US12209102B2, “Heterocyclic compounds and uses thereof” (Kumquat Biosciences Inc., priority 2022, dated 2025), this text covers IC50 for eleven compounds.

T1 sequence (P01116 1-188 isoform P01116-2 G12D): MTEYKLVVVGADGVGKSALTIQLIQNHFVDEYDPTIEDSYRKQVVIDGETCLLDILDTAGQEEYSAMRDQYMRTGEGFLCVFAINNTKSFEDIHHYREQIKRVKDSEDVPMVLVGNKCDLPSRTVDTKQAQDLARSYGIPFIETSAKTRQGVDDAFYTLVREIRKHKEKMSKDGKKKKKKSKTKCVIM
T4 sequence (P01116 1-188 isoform P01116-2): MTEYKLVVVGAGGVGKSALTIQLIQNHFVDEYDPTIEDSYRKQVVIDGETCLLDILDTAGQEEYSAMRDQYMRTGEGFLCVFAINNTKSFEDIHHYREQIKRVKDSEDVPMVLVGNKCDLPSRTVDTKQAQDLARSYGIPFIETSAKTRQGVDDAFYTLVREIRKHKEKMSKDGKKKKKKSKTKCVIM
T2 sequence (P01116 1-188 isoform P01116-2 G12S): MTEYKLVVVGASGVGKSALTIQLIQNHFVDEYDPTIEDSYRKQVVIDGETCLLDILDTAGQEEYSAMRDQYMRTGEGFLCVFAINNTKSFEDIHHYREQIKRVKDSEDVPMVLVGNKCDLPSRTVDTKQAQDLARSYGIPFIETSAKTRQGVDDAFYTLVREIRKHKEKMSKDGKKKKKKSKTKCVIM

On to `N#Cc1c(N)sc2c(F)ccc(-c3c(Cl)c4c5c(nc(OC[C@@]67CCCN6C[C@H](F)C7)nc5c3F)N(C3CCN(C(=O)C(F)F)CC3)CCO4)c12` [Compound 971, 2-amino-4-(8-chloro-4-(1-(2,2-difluoroacetyl)piperidin-4-yl)-10-fluoro-2-(((2R,7aS)-2-fluorotetrahydro-1H-pyrrolizin-7a(5H)-yl)methoxy)-5,6-dihydro-4H-[1,4]oxazepino[5,6,7-de]quinazolin-9-yl)-7-fluorobenzo[b]thiophene-3-carbonitrile], for which the IC50 on K-Ras G12D is < 100 nM; at K-Ras G12S, < 100 nM; on K-Ras G12V it was < 100 nM; at K-Ras WT, < 100 nM; with A549 cells, < 5000 nM; in the assay on SW620 cells, < 5000 nM.
Consider `CC(COC(F)F)N1CCOc2c(Cl)c(-c3ccc(F)c4sc(N)c(C#N)c34)c(F)c3nc(OC[C@@]45CCCN4C[C@H](F)C5)nc1c23` (stereo partly drawn) [Compound 973, 2-amino-4-(8-chloro-4-(1-(difluoromethoxy)propan-2-yl)-10-fluoro-2-(((2R,7aS)-2-fluorotetrahydro-1H-pyrrolizin-7a(5H)-yl)methoxy)-5,6-dihydro-4H-[1,4]oxazepino[5,6,7-de]quinazolin-9-yl)-7-fluorobenzo[b]thiophene-3-carbonitrile], for which the IC50 was < 100 nM at K-Ras G12D; < 100 nM on K-Ras G12S; < 100 nM at K-Ras G12V; < 100 nM on K-Ras WT; < 5000 nM with A549 cells; < 5000 nM in the assay on SW620 cells.
Consider `N#Cc1c(N)sc2c(F)ccc(-c3c(Cl)c4c5c(nc(OC[C@@]67CCCN6C[C@H](F)C7)nc5c3F)N(C3CC35CNC5)CCO4)c12` (stereo partly drawn) [Compound 990, 2-amino-4-(8-chloro-10-fluoro-2-(((2R,7aS)-2-fluorotetrahydro-1H-pyrrolizin-7a(5H)-yl)methoxy)-4-(5-azaspiro[2.3]hexan-1-yl)-5,6-dihydro-4H-[1,4]oxazepino[5,6,7-de]quinazolin-9-yl)-7-fluorobenzo[b]thiophene-3-carbonitrile], for which the IC50 is < 100 nM at K-Ras G12D; < 100 nM on K-Ras G12S; < 100 nM on K-Ras G12V; < 100 nM on K-Ras WT; < 5000 nM with A549 cells; < 5000 nM in the assay with SW620 cells.
In the case of `C[C@H]1COc2c(Cl)c(-c3ccc(F)c4sc(N)c(C#N)c34)c(F)c3nc(OC[C@@]45CCCN4C[C@H](F)C5)nc(c23)N1C1CCN(C(=O)C2CC2C#N)CC1` (stereo partly drawn) [Compound 995, 2-amino-4-((5S)-8-chloro-4-(1-(2-cyanocyclopropane-1-carbonyl)piperidin-4-yl)-10-fluoro-2-(((2R,7aS)-2-fluorotetrahydro-1H-pyrrolizin-7a(5H)-yl)methoxy)-5-methyl-5,6-dihydro-4H-[1,4]oxazepino[5,6,7-de]quinazolin-9-yl)-7-fluorobenzo[b]thiophene-3-carbonitrile], the IC50 on K-Ras G12D was < 100 nM; on K-Ras G12S, < 100 nM; on K-Ras G12V it was < 100 nM; at K-Ras WT, < 100 nM; with A549 cells, < 5000 nM; in the assay on SW620 cells, < 5000 nM.
Take `N#Cc1c(N)sc2c(F)ccc(-c3c(Cl)c4c5c(nc(OC[C@@]67CCCN6C[C@H](F)C7)nc5c3F)N(C3CCC5(C3)CN(C(=O)C3CC3)C5)CCO4)c12` (stereo partly drawn) [Compound 1011, 2-amino-4-(8-chloro-4-(2-(cyclopropanecarbonyl)-2-azaspiro[3.4]octan-6-yl)-10-fluoro-2-(((2R,7aS)-2-fluorotetrahydro-1H-pyrrolizin-7a(5H)-yl)methoxy)-5,6-dihydro-4H-[1,4]oxazepino[5,6,7-de]quinazolin-9-yl)-7-fluorobenzo[b]thiophene-3-carbonitrile]: the IC50 at K-Ras G12D is < 100 nM; at K-Ras G12S, < 100 nM; on K-Ras G12V, < 100 nM; at K-Ras WT, < 100 nM; with A549 cells it was < 5000 nM; in the assay with SW620 cells it was < 5000 nM.
In the case of `C[C@H](Oc1nc2c3c(c(Cl)c(-c4ccc(F)c5sc(N)c(C#N)c45)c(F)c3n1)OCCN2C1CCN(C(=O)c2ccnn2C)CC1)[C@@H]1CCCN1C` [Compound 1012, 2-amino-4-(8-chloro-10-fluoro-4-(1-(1-methyl-1H-pyrazole-5-carbonyl)piperidin-4-yl)-2-((S)-1-((S)-1-methylpyrrolidin-2-yl)ethoxy)-5,6-dihydro-4H-[1,4]oxazepino[5,6,7-de]quinazolin-9-yl)-7-fluorobenzo[b]thiophene-3-carbonitrile], the IC50 at K-Ras G12D was < 100 nM; on K-Ras G12S, < 100 nM; at K-Ras G12V it was < 100 nM; on K-Ras WT, < 100 nM; in the assay on A549 cells it was < 5000 nM; in the assay on SW620 cells, < 5000 nM.
`COCC1CN(CC(F)F)c2nc(OC[C@@]34CCCN3C[C@H](F)C4)nc3c(F)c(-c4ccc(F)c5sc(N)c(C#N)c45)c(Cl)c(c23)O1` (stereo partly drawn) [Compound 1030, 2-amino-4-(8-chloro-4-(2,2-difluoroethyl)-10-fluoro-2-(((2R,7aS)-2-fluorotetrahydro-1H-pyrrolizin-7a(5H)-yl)methoxy)-6-(methoxymethyl)-5,6-dihydro-4H-[1,4]oxazepino[5,6,7-de]quinazolin-9-yl)-7-fluorobenzo[b]thiophene-3-carbonitrile]: the IC50 at K-Ras G12D is < 100 nM; on K-Ras G12S, < 100 nM; at K-Ras G12V, < 100 nM; at K-Ras WT, < 100 nM; in the assay on A549 cells it was < 5000 nM; in the assay on SW620 cells it was < 5000 nM.
`N#Cc1c(N)sc2c(F)ccc(-c3c(Cl)c4c5c(nc(OC[C@@]67CCCN6C[C@H](F)C7)nc5c3F)N(C3CC(C#N)C3)CCO4)c12` (stereo partly drawn) [Compound 1043, 2-amino-4-(8-chloro-4-(3-cyanocyclobutyl)-10-fluoro-2-(((2R,7aS)-2-fluorotetrahydro-1H-pyrrolizin-7a(5H)-yl)methoxy)-5,6-dihydro-4H-[1,4]oxazepino[5,6,7-de]quinazolin-9-yl)-7-fluorobenzo[b]thiophene-3-carbonitrile]: the IC50 was < 100 nM at K-Ras G12D; < 100 nM on K-Ras G12S; < 100 nM at K-Ras G12V; < 100 nM at K-Ras WT; < 5000 nM in the assay with A549 cells; < 5000 nM in the assay on SW620 cells.
As for `C[C@H]1CN(C2CC2)c2nc(OC[C@@]34CCCN3C[C@H](F)C4)nc3c(F)c(-c4ccc(F)c5sc(N)c(C#N)c45)c(Cl)c(c23)O1` [Compound 1044, 2-amino-4-((6S)-8-chloro-4-cyclopropyl-10-fluoro-2-(((2R,7aS)-2-fluorotetrahydro-1H-pyrrolizin-7a(5H)-yl)methoxy)-6-methyl-5,6-dihydro-4H-[1,4]oxazepino[5,6,7-de]quinazolin-9-yl)-7-fluorobenzo[b]thiophene-3-carbonitrile], the IC50 at K-Ras G12D was < 100 nM; at K-Ras G12S, < 100 nM; on K-Ras G12V, < 100 nM; at K-Ras WT it was < 100 nM; with A549 cells, < 5000 nM; in the assay on SW620 cells it was < 5000 nM.
On to `C[C@H]1CN(C2CCN(C(=O)C3CC3C#N)CC2)c2nc(OC[C@@]34CCCN3C[C@H](F)C4)nc3c(F)c(-c4ccc(F)c5sc(N)c(C#N)c45)c(Cl)c(c23)O1` (stereo partly drawn) [Compound 1051, 2-amino-4-((6S)-8-chloro-4-(1-(2-cyanocyclopropane-1-carbonyl)piperidin-4-yl)-10-fluoro-2-(((2R,7aS)-2-fluorotetrahydro-1H-pyrrolizin-7a(5H)-yl)methoxy)-6-methyl-5,6-dihydro-4H-[1,4]oxazepino[5,6,7-de]quinazolin-9-yl)-7-fluorobenzo[b]thiophene-3-carbonitrile], for which the IC50 is < 100 nM at K-Ras G12D; < 100 nM at K-Ras G12S; < 100 nM at K-Ras G12V; < 100 nM at K-Ras WT; < 5000 nM in the assay with A549 cells; < 5000 nM with SW620 cells.
Turning to `CC(C1CC1)N1CCOc2c(Cl)c(-c3ccc(F)c4sc(N)c(C#N)c34)c(F)c3nc(OC[C@@]45CCCN4C[C@H](F)C5)nc1c23` (stereo partly drawn) [Compound 1054, 2-amino-4-(8-chloro-4-(1-cyclopropylethyl)-10-fluoro-2-(((2R,7aS)-2-fluorotetrahydro-1H-pyrrolizin-7a(5H)-yl)methoxy)-5,6-dihydro-4H-[1,4]oxazepino[5,6,7-de]quinazolin-9-yl)-7-fluorobenzo[b]thiophene-3-carbonitrile], the IC50 is < 100 nM at K-Ras G12D; < 100 nM at K-Ras G12S; < 100 nM on K-Ras G12V; < 100 nM on K-Ras WT; < 5000 nM in the assay on A549 cells; < 5000 nM with SW620 cells.

Usually IC50 stands for the midpoint of a concentration-inhibition curve.
